The source of these data is a melting point compilation (Tetko et al.; mined from patent text by program, amines drawn as free bases though some values may be those of a salt).

As a reminder, the melting point is the temperature, or range, at which the solid turns liquid.

Compound `O=C(c1ccc(-c2ccn(C(=O)Cc3ccc(Cl)cc3Cl)n2)cc1)N1Cc2cccn2Cc2ccccc21` showed a melting point of 130 to 140 °C.
On to `O=C(O)CCC(=NOCc1ccc(OCc2coc(-c3ccccc3)n2)cc1)c1ccccc1`, for which the melting point lay within 144 to 145 °C.
In the case of `COCCOCCOc1ccc(/C=C/C(=O)O)c(Oc2ncc(C(F)(F)F)cc2Cl)c1` it was 134 °C.
Next, `CCCCNC(=O)Oc1cccc(NC(=O)C=C(C)OCC)c1`: 164 °C; `CN1CCC(OC2c3ccccc3CCn3c2nc(-c2ccccc2)c3-c2ccccc2)CC1` (centres undefined): 90 °C; `COc1ccc([C@H]2c3[nH]c4ccccc4c3C[C@H]3C(=O)N(CCc4ccccn4)C(=O)N23)cc1` (relative stereo): 140 to 143 °C.
In the case of `CC(c1c[nH]cn1)c1cccc(CO)c1O` (centres undefined) it was 135 to 136 °C; in that of `Cc1ccccc1CCC(C)(C)NC(=O)n1nc(N(C)C)n(N)c1=O`, 117 °C; in that of `O=C(NC1(C(=O)O)CCCCC1)C(CS)Cc1ccccc1` (centres undefined), 193 to 195 °C.
For `Cc1nc2cccc(OC3CCCCC3)c2c(N)c1C(=O)O`, the melting point is 220 to 222 °C.
In the case of `Cc1cc(Oc2ccc(C(=O)O)cc2)ccc1[N+](=O)[O-]` it was 187 to 190 °C; in that of `COc1cc(C)ccc1S(=O)(=O)NC(=O)C(c1ccc2c(c1)OCO2)c1cn(C)c2ccc(Br)cc12` (centres undefined), 145 to 150 °C.
In the case of `O=C(c1ccc(F)cc1)c1c(-c2ccc(OCCN3CCCC3)cc2)sc2c(O)cccc12` it was 138 to 142 °C; in that of `CC(=O)SCC(CSC(C)=O)C(=O)N(CC(=O)O)C1Cc2ccccc2C1`, 114 to 115 °C; in that of `COc1cccc(OCC(N)=O)c1-c1c(C#N)c2ccccn2c1Nc1c(C)cccc1C`, 227 to 229 °C.
In the case of `CCOC(=O)c1cn(CC)c2nc3ccccc3n2c1=O` it was 252 to 253 °C.
`CCOCc1nc2c(N)nc3ccccc3c2n1Cc1cc(-c2ccccc2)on1`: the melting point was 221 to 223 °C.
In the case of `COC(=O)C(=C(CBr)CBr)N1CC(N2C(=O)c3ccccc3C2=O)C1=O` (centres undefined) it was 128 to 131 °C; in that of `O=C(NC(CS)Cc1ccccc1)N1CCSCC1` (single isomer, unassigned; (+)), 98 to 100 °C.
Next, `COC(=O)c1ccc(O)c(C2CCCC2)c1`: 114 to 116 °C.
`NS(=O)(=O)c1cccc(-c2cc(-c3nc(-c4ccc(C(F)(F)F)cc4F)cc(C(F)(F)F)n3)ccn2)c1` gave a melting point of 210 °C.
In the case of `COC(=O)CC(NCCN(C)C)C(=O)O` (centres undefined) it was 164 to 166 °C.
Regarding `Nc1ccc2nc(-c3ccccc3)oc2n1`, the melting point worked out at 210 °C.
For `CC1CC2Oc3ccc(Cl)cc3C(=O)N2O1` (centres undefined), the melting point lay in the range of 147 to 151 °C.
Regarding `C[C@@H]1S[C@@H](C(=O)Nc2ccc(CN3CCOCC3)cc2)Cc2cc3c(cc2C1=O)OCO3`, the melting point was 172 to 174 °C.
In the case of `CCOc1ccc2c(c1)n(C1CCCCC1)c(=O)n2Cc1ccc(-n2cccc2)cc1OC` it was 115 °C; in that of `CC(=O)NC(Cc1c[nH]c2ccccc12)C(=O)C=Cc1cc(C(F)(F)F)cc(C(F)(F)F)c1` (centres undefined), 68 to 70 °C.
In turn, `FC(F)(F)c1ccc2c(Nc3ccncc3)noc2c1` showed a melting point of 249 to 250 °C.
As for `CCOC(=O)NCCCC1OCC(c2cccc3ccccc23)CO1` (centres undefined), the melting point lay within 93 to 94 °C.
Next, `CN(C)CCCC1(O)c2ccccc2COc2ccc(C3=NC(C)(C)CO3)cc21` (centres undefined): 166 to 167 °C.
In the case of `CC(=O)c1sccc1CN1C(=O)C(NC(=O)Nc2cccc(C)c2)N=C(c2ccccc2F)c2ccccc21` (racemic) it was 222 to 223 °C.
On to `CSCCC1(C)CCc2c(C)c(O)c(C)c(C)c2O1` (centres undefined), for which the melting point was in the range of 66.5 to 67 °C.
In the case of `COC(=O)c1ccc(O)c(-n2cccc2C=O)c1`, the melting point was in the range of 147 to 148 °C.
On to `CS(=O)(=O)c1ccc(Oc2cc(OC3CCOCC3)c3[nH]c(C4=NCC(CC(=O)NCCO)S4)cc3c2)cn1` (centres undefined), for which the melting point was in the range of 157 to 158 °C.
In the case of `O=C(O)c1cccc(S(=O)(=O)Oc2ccc(-c3ccc(-c4c(Cc5ccccc5)oc5ccccc45)cc3)cc2)c1` it was 169 to 171 °C; in that of `Cc1ccccc1C(CCC(=O)O)Oc1cc(OCc2ccsc2)cc(F)c1C#N` (racemic), 150 to 151 °C; in that of `CCOC(=O)c1ccc2cc(Cl)ccn2c1=O`, 161 to 164 °C.
As for `O=C(/C=C/c1ccc(C(=O)O)cc1)NOC1CCCCO1` (centres undefined), the melting point worked out at 182 °C.
Next, `Cc1ccc(Sc2cncc3sc(C(=O)NCC(O)CO)cc23)cc1` (centres undefined): 120 to 122 °C; `CN(C)c1cncc(C(=NCCc2ccccc2Cl)NC#N)c1`: 158 °C.
In the case of `CC(C)c1cccc(C(C)C)c1N1C(=O)c2cccc3c(C#N)ccc(c23)C1=O` it was 291 °C; in that of `Nc1ncnc2c1ncn2Cc1oc2ccccc2c(=O)c1-c1cccc(F)c1`, 224 to 227 °C.
On to `CCCN(CCC)C(=O)C(=NNc1ccccc1)C(C)=O`, for which the melting point fell in the range of 79 to 80 °C.
In the case of `CC12CCC(=O)C=C1CCC1C3CC(OCC(=O)c4ccccc4)C(O)(C(=O)CO)C3(C)CC(O)C12F` (centres undefined) it was 228 to 230 °C.
Next, `CC(O)c1ccc(C(O)C(C)(C)C)cc1` (centres undefined): 118 to 121 °C; `O=C(O)CC(O)c1ccc(-c2ccccc2Cl)o1` (centres undefined): 53 to 55 °C.
For the compound `CCCCCCCCCCCCc1ccsc1-c1ccc2c(c1)c(=O)c1cc3c(cc12)c(=O)c1cc(-c2sccc2CCCCCCCCCCCC)ccc13`, the melting point fell in the range of 152 to 153 °C.
In the case of `COc1ccc(-c2ccc(C(=O)O)cc2)c2c1OC(C)(C)C2` it was 249 to 252 °C.
In the case of `CCOP(=O)(/C=C/c1cn(-c2ccccc2)nc1OCc1ccc(OCc2nc(-c3ccc(C(=O)O)s3)oc2C)c(OC)c1)OCC` it was 165 to 166 °C.
In the case of `O=C(O)CNc1nccc(-c2nc(=O)c3ccccc3s2)n1` it was 283 to 284 °C.
In turn, `CCOC(=O)CC(NC(=O)c1ccc(Cl)cc1)C(=O)c1ccsc1` (centres undefined) displayed a melting point of 106 to 108 °C.
In turn, `c1ccc(-c2ccc(-c3cnc(-c4ccccc4)[nH]3)cn2)cc1` showed a melting point of 206 °C.
In the case of `COc1ccc2c(c1)c(-c1cc3c(Cl)ccnc3[nH]1)cn2C` it was 250 to 252 °C; in that of `COc1ccc2c3c(cn2S(=O)(=O)c2ccc(C)cc2)CC(N=[N+]=[N-])C(=O)c13` (centres undefined), 147 to 148 °C; in that of `Cc1ccccc1C(CCC(=O)O)Oc1cc(OCc2ccsc2)ccc1C(=O)NC(Cc1ccccc1)C(=O)O` (centres undefined), 178 to 180 °C.
Next, `CCOC(=O)COc1ccc(SCc2cccc3nc(-c4ccc(C(F)(F)F)cc4)sc23)cc1C`: 193 to 196 °C.
Next, `CCOC(=O)c1cnn(-c2c(Cl)cc(C(F)(F)F)cc2Cl)c1Br`: 80 to 82 °C; `C[C@]1(CN2CCC(NCCc3ccc(C(F)(F)F)cc3)CC2)Cn2cc([N+](=O)[O-])nc2O1`: 80.7 to 84.2 °C; `Oc1nc(S)nc2c(-c3ccccc3)cnn12`: 251 °C.
The compound `Nc1nc(NCC(O)(c2ccccc2)c2ccccc2)c2ncn(C3OC(CO)C(O)C3O)c2n1` (centres undefined) came in with a melting point of 138 to 140 °C.
Next, `COc1ccccc1Sc1c(NS(=O)(=O)c2ccc(C(C)(C)C)cc2)nc(CO)nc1OC`: 152 °C; `CC(C)(C)c1ccc(C(CCCN2CCC(=NO)CC2)OC2CCCCO2)cc1` (centres undefined): 150 to 151 °C.
With `O=C(O)CCNc1cccc(CNC(=O)C2Cc3ccccc3N2S(=O)(=O)c2ccc(-c3cccc(C(F)(F)F)c3)cc2)c1` (centres undefined), the melting point turned out to be 85 °C.
Compound `O=[N+]([O-])c1ccc2c(c1)CN1C(=S)SC[C@@H]1C2` registered a melting point of 182 °C.
`Nc1ccc(Br)c(-c2nc3ncccc3o2)c1`: the melting point lay in the range of 172 to 174 °C.
For the compound `CCOC(=O)c1ccc(OCCC2CCN(c3ccc(C)nn3)CC2)cc1`, the melting point is 130 °C.
In the case of `CC(C(=O)O)c1ccc(-c2ccccc2F)c(F)c1` (centres undefined) it was 120 to 123 °C; in that of `Cc1cccc(=O)c(NC(=O)C2=C(O)c3ccccc3S(=O)(=O)N2C)c1`, 235 to 242 °C.
Next, `CCOC(=O)c1c(C=O)c2c(Cl)cc(Cl)cc2n1C(=O)OC(C)(C)C`: 141 °C; `CCCCN1CCC(NC(=O)c2ccc(NCc3ccnc4ccccc34)cc2)CC1`: 189 to 190 °C; `NC(=O)C1CCN(CC=Cc2ccccc2)CC1`: 190 to 192 °C.
On to `O=C(NCC1(O)CCCCCC1)c1cc(-c2cccnc2C(=O)O)ccc1Cl`, for which the melting point is 95 to 100 °C.
On to `C#CCN(C(=O)CCl)c1c(C)nc(N(C)C)nc1C`, for which the melting point lay in the range of 108 to 110 °C.
In turn, `CC(=O)OC1CCC2(C)C(=CCC3C2CCC2(C)C(n4cnc5ccccc54)=C(C=O)CC32)C1` (centres undefined) gave a melting point of 227 to 230 °C.
Next, `CC(C)Oc1c(C(=O)Nc2nnn[nH]2)sc2c1CS(=O)CC2` (centres undefined): 225 to 226 °C; `Cn1cc(C2CCC(=O)C2)c2cc(F)ccc21` (centres undefined): 104 to 105 °C.
In the case of `COc1ccc(N2CCN(c3c(C)c(C)c4c(c3C)CC(C)(CC#N)O4)CC2)cc1` (centres undefined) it was 161 to 163 °C; in that of `COc1c(Cl)ccc(-c2cc(N)c(Cl)c(C(=O)N3CCCO3)n2)c1F`, 204 to 207 °C.
In the case of `Cc1cccc(-c2n[nH]cc2-c2ccc(F)c(-c3ccc(CN4CCOCC4)cn3)c2)n1` it was 68 to 70 °C; in that of `O=C(Nc1ccc(F)cc1)O[C@@H]1CN=C(c2ccccc2)O[C@H]1c1ccccc1` (racemic), 158 °C.
The compound `CCOC(=O)C1=C(C)Nc2nc(N3CCOCC3)nc(N3CCOCC3)c2C1c1cccc(C#N)c1` (centres undefined) displayed a melting point of 210 °C.
In the case of `O=C(O)Cc1c(C(=O)c2cccc(Cl)c2)[nH]c2ccc(Cl)cc12`, the melting point lay in the range of 243 to 247 °C.
Next, `ClCCC(=C(c1ccccc1)c1ccc(OCCN2CCCC2)cc1)c1ccccc1`: 112 to 115 °C.
Take `COc1ccc(-n2nnnc2C(F)(F)F)c(OC)c1CBr`: the melting point fell in the range of 89.5 to 90 °C.
